Assay results published in PubChem BioAssay (NCI).
Values joined by “and” are separate entries in the source; they are usually repeats but may differ in a detail not shown here. Identical values can stand only once.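 Exposure lasted 48 hours, with cells grown in 96-well plates and compounds tested at five concentrations. GI50 = concentration required for 50% inhibition of growth. The concentration for full growth arrest is given as TGI.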

Assays:
Experiment in all cases: NCI tumour cell line growth inhibition, 48 h
U251 CNS = system: U251 CNS
RPMI-8226 leukemia = system: RPMI-8226 leukemia
NCI/ADR-RES ovarian = system: NCI/ADR-RES ovarian
A498 renal = system: A498 renal
HT29 colon = system: HT29 colon
SW-620 colon = system: SW-620 colon
SR leukemia = system: SR leukemia
SNB-75 CNS = system: SNB-75 CNS
COLO 205 colon = system: COLO 205 colon
NCI-H23 lung = system: NCI-H23 lung

Structure (SMILES)	GI50 (U251 CNS)	TGI (U251 CNS)	GI50 (RPMI-8226 leukemia)	TGI (RPMI-8226 leukemia)	GI50 (NCI/ADR-RES ovarian)	TGI (NCI/ADR-RES ovarian)	GI50 (A498 renal)	TGI (A498 renal)	GI50 (HT29 colon)	TGI (HT29 colon)	GI50 (SW-620 colon) [µM]	TGI (SW-620 colon) [µM]	GI50 (SR leukemia) [µM]	TGI (SR leukemia) [µM]	GI50 (SNB-75 CNS)	TGI (SNB-75 CNS)	GI50 (COLO 205 colon)	TGI (COLO 205 colon)	GI50 (NCI-H23 lung)	TGI (NCI-H23 lung)
O=C(/C=C/c1ccc(C(F)(F)F)cc1)c1ccc(Nc2nc(NCCO)nc(N3CCOCC3)n2)cc1	1.63 µM	3.38 µM	2.07 µM	5.71 µM	2.87 µM	9.52 µM	1.4 µM	12 µM	2 µM	4.51 µM	1.92	4.05	3.1	> 100	1.84 µM	7.9 µM	2.09 µM	4.08 µM	2.55 µM	6.97 µM
CN1CCn2c(c(Sc3ccc(C(=O)NO)cc3)c3ccccc32)C1=O	1.79 µM	4 µM	1.24 µM	> 24.5 µM	8.82 µM	> 87.1 µM	0.151 µM	1.8 µM	2.92 µM	9.38 µM	1.86	5.14	2.65	> 100	1.27 µM	2.99 µM	1.69 µM	3.87 µM	1.35 µM	4.36 µM
O=P1(O)c2ccccc2Nc2cc(C(F)(F)F)ccc21	–	> 100 µM	–	> 100 µM	–	> 100 µM	–	> 100 µM	–	> 100 µM	–	> 100	–	> 100	–	> 100 µM	–	> 100 µM	–	> 100 µM
C=C1CC[C@@H]2[C@](C)(COC(C)=O)[C@H](OC(C)=O)CC[C@@]2(C)[C@@H]1C/C=C1/C(=O)OC[C@H]1OC(C)=O	6.09 µM	19.3 µM	2.06 µM	7.68 µM	4.22 µM	19.8 µM	14.4 µM	27.5 µM	–	–	2.29	5.85	2.59	10.1	2.83 µM	14.2 µM	3.37 µM	11.4 µM	6.22 µM	23 µM
COc1cc(-c2oc3c(OC)c(O)c(OC)c(O)c3c(=O)c2OC)ccc1O	–	> 100 µM	–	> 100 µM	–	> 100 µM	–	> 100 µM	–	> 100 µM	–	> 100	–	> 100	–	–	–	> 100 µM	–	> 100 µM
CC(=O)c1c[nH]cc1CO	–	> 10 µM	–	> 10 µM	–	> 10 µM	–	> 10 µM	–	–	–	> 10	–	> 10	–	> 10 µM	–	> 10 µM	–	> 10 µM
CCOC(=O)C#Cc1c(CC(=O)OCC)nnn1[C@H]1O[C@@H](CO)[C@@H]2OC(C)(C)O[C@@H]21	14 µM	27.6 µM	3.45 µM	9.06 µM	11.5 µM	36.5 µM	17.7 µM	31.5 µM	2.13 µM	4.3 µM	1.88	3.78	–	–	10.7 µM	22.9 µM	2.05 µM	4.06 µM	13.6 µM	30.5 µM
O=C1/C(=C/c2ccc(Cl)cc2)COc2ccc(O)c(O)c21	0.731 µM	2.06 µM	0.2 µM	0.512 µM	1.6 µM	15.8 µM	2.95 µM	9.19 µM	1.92 µM	3.98 µM	0.838	2.94	–	–	1.34 µM	3.65 µM	1.79 µM	3.31 µM	1.71 µM	4.09 µM
CCCCCN(CCCCC)CC(O)c1cc2c(c3ccccc13)CCCC2 (centres undefined)	6.33 µM and 11.5 µM	20.3 µM and 29.6 µM	2.41 µM and 1.5 µM	7.39 µM and 9.18 µM	6.44 µM and 12.3 µM	20.1 µM and 27.5 µM	3.34 µM and 10.8 µM	14.1 µM and 23.5 µM	1.35 µM and 2.22 µM	9.48 µM and 13.6 µM	5.99	19.4	–	–	10.4 µM and 11.9 µM	22.7 µM and 25.1 µM	3.4 µM and 13.7 µM	13.8 µM and 80.5 µM	3.72 µM and 5.94 µM	14.7 µM and 24.6 µM
O=C1C(=O)c2ccccc2C(O)=C1CCCCCCCCC1CCCCC1	–	17.8 µM	–	56.7 µM	–	25.3 µM	–	–	–	31 µM	–	17.7	–	54.9	–	22.9 µM	–	22.7 µM	–	14.5 µM
C[C@@H]1C[C@@]2(O[C@@H]2C)C(=O)O[C@@H]2CCN3CC=C(COC(=O)[C@]1(C)O)[C@H]23	–	> 100 µM	–	> 100 µM	–	> 100 µM	–	> 100 µM	–	> 100 µM	–	> 100	–	–	–	> 100 µM	–	> 100 µM	–	> 100 µM
OCCNCCNc1c2ccccc2nc2oc3ccccc3c12	12.5 µM	30.2 µM	4.76 µM	21.6 µM	14.5 µM	79.1 µM	8.27 µM	21.9 µM	4 µM	21.5 µM	5.23	24.4	–	–	13.2 µM	27.1 µM	3.51 µM	16.4 µM	–	–
COc1ccc2nc(C)cc(Nc3ccccc3O)c2c1	17.6 µM	35.3 µM	17.2 µM	51.4 µM	47.2 µM	> 100 µM	8.07 µM	45.2 µM	23.9 µM	> 100 µM	26.7	> 100	–	–	69.9 µM	> 100 µM	18.3 µM	36.5 µM	38.5 µM	> 100 µM
C/C=C/C=C\C1OC(O)([C@H](CC)C(=O)NC/C=C/C=C(\C)[C@H](OC)C(C)C2OC(\C=C/C=C/C=C(\C)C(=O)c3c(O)ccn(C)c3=O)[C@H](O)[C@@H]2O)C(O)C(O)C1(C)C (some centres undefined)	–	> 100 µM	–	> 100 µM	–	> 100 µM	–	> 100 µM	–	> 100 µM	–	> 100	–	–	–	> 100 µM	–	> 100 µM	–	> 100 µM
CSC1C(=O)c2ccccc2/C(=N/Nc2nc3ccccc3s2)C1C (centres undefined)	7.66 µM	15.6 µM	7.44 µM	> 50 µM	9.94 µM	25.5 µM	–	–	–	–	12.9	34.1	0.843	2.52	–	–	9.63 µM	21.1 µM	11.2 µM	28.3 µM
CCOC1C=CCCO1 (centres undefined)	–	–	–	> 100 µM	–	> 100 µM	–	> 100 µM	–	> 100 µM	–	> 100	–	> 100	–	> 100 µM	–	> 100 µM	–	> 100 µM
